Assay results as given in patent publication US7368422B2, “Semi-synthetic rearranged vancomycin/desmethyl-vancomycin-based glycopeptides with antibiotic activity” (Novartis Vaccines and Diagnostics Inc., priority 2005, dated 2008).
Converted amounts (≈) assume the structure as drawn.

Experiments:
Assay type in all cases: cell-based
[1] = tested on: glycopeptide-intermediate Staphylococus aureus (GISA) (V); assay: MIC, NCCLS microdilution broth procedure, GISA (V)
Description: (§1) The following table identifies specific species of compounds according to the present invention and information concerning their associated antibacterial activity. The antibacterial activity of a compound in accordance with the present invention, chloro-biphenyl-rearranged norvacomycin (B), was tested and compared to unmodified vancomycin (Van) and norvancoycin (Nor). MIC (minimum inhibitory concentration) was measured according to NCCLS standards using the microdilution broth prodcedure. Serial dilutions of the compounds were placed in a 96-well microplate containing Mueller-Hinton medium. Based on absorbance of 600 nm, diluted overnight cultures were placed in the wells at a final concentration of 5×10^5 cfu/mL. The plate was then placed in a culture box at 35° C. The next day, MIC was determined by visual observation of the plates. The glycopeptides were tested against a variety of strains well known in the art for such testing, including methicillin-susceptible Staphylococus aureus (MSSA), methicillin-susceptible Staphylococus epidermidis (MSSE), methicillin-resistant Staphylococus aureus (MRSA), methicllin-resistant Staphylococus epidermidis (MRSE), and glycopeptide-intermediate Staphylococus aureus (GISA). Results are shown in the Table 1 as minimum inhibitory concentration (MIC) in units of μg/ml: […]

[2] = tested on: methicillin-resistant Staphylococus aureus (MRSA); assay: MIC, NCCLS microdilution broth procedure, MRSA
Description: as §1

[3] = tested on: methicillin-susceptible Staphylococus epidermidis (MSSE); assay: MIC, NCCLS microdilution broth procedure, MSSE
Description: as §1

[4] = tested on: methicillin-susceptible Staphylococus aureus (MSSA); assay: MIC, NCCLS microdilution broth procedure, MSSA
Description: as §1

[5] = tested on: glycopeptide-intermediate Staphylococus aureus (GISA) (D); assay: MIC, NCCLS microdilution broth procedure, GISA (D)
Description: as §1

[6] = tested on: methicllin-resistant Staphylococus epidermidis (MRSE); assay: MIC, NCCLS microdilution broth procedure, MRSE
Description: as §1

| SMILES | minimum inhibitory concentration (MIC) ([1]; GISA (V) strain # 68) | minimum inhibitory concentration (MIC) ([1]; GISA (V) strain # 143) | minimum inhibitory concentration (MIC) ([2]; MRSA strain # 134) | minimum inhibitory concentration (MIC) ([2]; MRSA strain # 143) | minimum inhibitory concentration (MIC) ([3]; MSSE strain # 3) | minimum inhibitory concentration (MIC) ([3]; MSSE strain # 10) | minimum inhibitory concentration (MIC) ([4]; MSSA strain # 68) | minimum inhibitory concentration (MIC) ([4]; MSSA strain # 83) | minimum inhibitory concentration (MIC) ([5]; GISA (D) strain # 68) | minimum inhibitory concentration (MIC) ([5]; GISA (D) strain # 143) | minimum inhibitory concentration (MIC) ([6]; MRSE strain # 24) | minimum inhibitory concentration (MIC) ([6]; MRSE strain # 25) | minimum inhibitory concentration (MIC) ([6]; MRSE strain # 26) |
| --- | --- | --- | --- | --- | --- | --- | --- | --- | --- | --- | --- | --- | --- |
| CC(C)C[C@@H](N)C(=O)N[C@H]1C(=O)N[C@@H](CC(N)=O)C(=O)N[C@H]2C(=O)N[C@H]3C(=O)N[C@H](C(=O)N[C@H](C(=O)O)c4cc(O)cc(O)c4-c4cc3ccc4O)[C@H](O)c3ccc(c(Cl)c3)Oc3cc2cc(c3O[C@@H]2O[C@H](CO)[C@@H](O)[C@H](O)[C@H]2O[C@H]2C[C@](C)(N)[C@H](O)[C@H](C)O2)Oc2ccc(cc2Cl)[C@H]1O [Nor, norvancoycin] | 4 µg/mL (≈ 2.79 µM) | 8 µg/mL (≈ 5.57 µM) | 2 µg/mL (≈ 1.39 µM) | 2 µg/mL (≈ 1.39 µM) | 2 µg/mL (≈ 1.39 µM) | 2 µg/mL (≈ 1.39 µM) | 2 µg/mL (≈ 1.39 µM) | 2 µg/mL (≈ 1.39 µM) | 4 µg/mL (≈ 2.79 µM) | 4 µg/mL (≈ 2.79 µM) | 2 µg/mL (≈ 1.39 µM) | 2 µg/mL (≈ 1.39 µM) | 2 µg/mL (≈ 1.39 µM) |
| CN[C@H](CC(C)C)C(=O)N[C@H]1C(=O)N[C@@H](CC(N)=O)C(=O)N[C@H]2C(=O)N[C@H]3C(=O)N[C@H](C(=O)N[C@H](C(=O)O)c4cc(O)cc(O)c4-c4cc3ccc4O)[C@H](O)c3ccc(c(Cl)c3)Oc3cc2cc(c3O[C@@H]2O[C@H](CO)[C@@H](O)[C@H](O)[C@H]2O[C@H]2C[C@](C)(N)[C@H](O)[C@H](C)O2)Oc2ccc(cc2Cl)[C@H]1O [Van, vancomycin] | 8 µg/mL (≈ 5.52 µM) | 8 µg/mL (≈ 5.52 µM) | 2 µg/mL (≈ 1.38 µM) | 2 µg/mL (≈ 1.38 µM) | 2 µg/mL (≈ 1.38 µM) | 2 µg/mL (≈ 1.38 µM) | 2 µg/mL (≈ 1.38 µM) | 2 µg/mL (≈ 1.38 µM) | 8 µg/mL (≈ 5.52 µM) | 4 µg/mL (≈ 2.76 µM) | 2 µg/mL (≈ 1.38 µM) | 2 µg/mL (≈ 1.38 µM) | 2 µg/mL (≈ 1.38 µM) |
